The molecules below were run on HCT116 colorectal cancer cells (assay: Cisplatin sensitization assay (96 h cell viability MTS)). Conditions: compound and Cisplatin added simultaneously, Cisplatin sensitization value.
Type: cell-based
Outline: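 Compound and cisplatin added together as a full matrix of 2-fold serial dilutions from a top final concentration of 10 μM; cells incubated 96 h at 37° C, 5% CO2. Viability then read by MTS after 1 h further incubation; sensitization value reported in μM bins.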
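Note: Test-compound concentration that lowers the Cisplatin IC50 by a set fold.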

Row | SMILES | Cisplatin Sensitization Assay
1 | COc1cncc(NC(=O)c2c(N)nn3cc(F)cnc23)c1-c1cncn1C [I-C-81, 2-amino-6-fluoro-N-(5-methoxy-4-(1-methyl-1H-imidazol-5-yl)pyridin-3-yl)pyrazolo[1,5-a]pyrimidine-3-carboxamide] | +++ (Cisplatin sensitization value of <0.02 μM)
2 | COc1cncc(NC(=O)c2c(N)nn3cc(F)cnc23)c1-c1cccnc1 [I-C-82, 2-amino-6-fluoro-N-(5′-methoxy-[3,4′-bipyridin]-3′-yl)pyrazolo[1,5-a]pyrimidine-3-carboxamide] | +++ (Cisplatin sensitization value of <0.02 μM)
3 | COCCn1cncc1-c1ccncc1NC(=O)c1c(N)nn2cc(F)cnc12 [I-C-83, 2-amino-6-fluoro-N-(4-(1-(2-methoxyethyl)-1H-imidazol-5-yl)pyridin-3-yl)pyrazolo[1,5-a]pyrimidine-3-carboxamide] | ++ (Cisplatin sensitization value>0.02 μM but <0.2 μM)
4 | COc1cncc(NC(=O)c2c(N)nn3cc(F)cnc23)c1C1CC1 [I-C-84, 2-amino-N-(4-cyclopropyl-5-methoxypyridin-3-yl)-6-fluoropyrazolo[1,5-a]pyrimidine-3-carboxamide] | ++ (Cisplatin sensitization value>0.02 μM but <0.2 μM)
5 | CN1CCN(C(=O)C2CCN(c3ccncc3NC(=O)c3c(N)nn4cc(F)cnc34)CC2)CC1 [I-G-1, 2-amino-6-fluoro-N-(4-(4-(4-methylpiperazine-1-carbonyl)piperidin-1-yl)pyridin-3-yl)pyrazolo[1,5-a]pyrimidine-3-carboxamide] | +++ (Cisplatin sensitization value of <0.02 μM)
6 | CN(C)C(=O)C1CCN(c2ccncc2NC(=O)c2c(N)nn3cc(F)cnc23)CC1 [I-G-2, 2-amino-N-(4-(4-(dimethylcarbamoyl)piperidin-1-yl)pyridin-3-yl)-6-fluoropyrazolo[1,5-a]pyrimidine-3-carboxamide] | +++ (Cisplatin sensitization value of <0.02 μM)
7 | CN1CCN(C(=O)C2CCN(c3c(Cl)cncc3NC(=O)c3c(N)nn4cc(F)cnc34)CC2)CC1 [I-G-3, 2-amino-N-(5-chloro-4-(4-(4-methylpiperazine-1-carbonyl)piperidin-1-yl)pyridin-3-yl)-6-fluoropyrazolo[1,5-a]pyrimidine-3-carboxamide] | +++ (Cisplatin sensitization value of <0.02 μM)
8 | CN1CCN(C(=O)C2CCN(c3c(F)cncc3NC(=O)c3c(N)nn4cc(F)cnc34)CC2)CC1 [I-G-4, 2-amino-6-fluoro-N-(5-fluoro-4-(4-(4-methylpiperazine-1-carbonyl)piperidin-1-yl)pyridin-3-yl)pyrazolo[1,5-a]pyrimidine-3-carboxamide] | +++ (Cisplatin sensitization value of <0.02 μM)
9 | CN1CCN(C(=O)C2CCN(c3c(F)cncc3NC(=O)c3c(N)nn4cc(Cl)cnc34)CC2)CC1 [I-G-5, 2-amino-6-chloro-N-(5-fluoro-4-(4-(4-methylpiperazine-1-carbonyl)piperidin-1-yl)pyridin-3-yl)pyrazolo[1,5-a]pyrimidine-3-carboxamide] | +++ (Cisplatin sensitization value of <0.02 μM)
10 | CN1CCCN(C(=O)C2CCN(c3c(F)cncc3NC(=O)c3c(N)nn4cc(F)cnc34)CC2)CC1 [I-G-6, 2-amino-6-fluoro-N-(5-fluoro-4-(4-(4-methyl-1,4-diazepane-1-carbonyl)piperidin-1-yl)pyridin-3-yl)pyrazolo[1,5-a]pyrimidine-3-carboxamide] | +++ (Cisplatin sensitization value of <0.02 μM)
11 | Nc1nn2cc(F)cnc2c1C(=O)Nc1cncc(F)c1N1CCC(C(=O)N2CCN3CCC2CC3)CC1 [I-G-7, N-(4-(4-(1,4-diazabicyclo[3.2.2]nonane-4-carbonyl)piperidin-1-yl)-5-fluoropyridin-3-yl)-2-amino-6-fluoropyrazolo[1,5-a]pyrimidine-3-carboxamide] | +++ (Cisplatin sensitization value of <0.02 μM)
12 | Nc1nn2cc(F)cnc2c1C(=O)Nc1cncc(F)c1N1CCC(C(=O)N2CCC2)CC1 [I-G-8, 2-amino-N-(4-(4-(azetidine-1-carbonyl)piperidin-1-yl)-5-fluoropyridin-3-yl)-6-fluoropyrazolo[1,5-a]pyrimidine-3-carboxamide] | +++ (Cisplatin sensitization value of <0.02 μM)
13 | CCN1CCN(C(=O)C2CCN(c3c(F)cncc3NC(=O)c3c(N)nn4cc(F)cnc34)CC2)CC1 [I-G-9, 2-amino-N-(4-(4-(4-ethylpiperazine-1-carbonyl)piperidin-1-yl)-5-fluoropyridin-3-yl)-6-fluoropyrazolo[1,5-a]pyrimidine-3-carboxamide] | +++ (Cisplatin sensitization value of <0.02 μM)
14 | Nc1nn2cc(F)cnc2c1C(=O)Nc1cncc(F)c1N1CCC(C(=O)N2CCN3CCCC3C2)CC1 (centres unmarked) [I-G-10, 2-amino-6-fluoro-N-(5-fluoro-4-(4-(octahydropyrrolo[1,2-a]pyrazine-2-carbonyl)piperidin-1-yl)pyridin-3-yl)pyrazolo[1,5-a]pyrimidine-3-carboxamide] | +++ (Cisplatin sensitization value of <0.02 μM)
15 | CN(C)[C@@H]1CCN(C(=O)C2CCN(c3c(F)cncc3NC(=O)c3c(N)nn4cc(F)cnc34)CC2)C1 [I-G-11, (R)-2-amino-N-(4-(4-(3-(dimethylamino)pyrrolidine-1-carbonyl)piperidin-1-yl)-5-fluoropyridin-3-yl)-6-fluoropyrazolo[1,5-a]pyrimidine-3-carboxamide] | +++ (Cisplatin sensitization value of <0.02 μM)
16 | Nc1nn2cc(F)cnc2c1C(=O)Nc1cncc(F)c1N1CCC(C(=O)N2CCNCC2)CC1 [I-G-12, 2-amino-6-fluoro-N-(5-fluoro-4-(4-(piperazine-1-carbonyl)piperidin-1-yl)pyridin-3-yl)pyrazolo[1,5-a]pyrimidine-3-carboxamide] | +++ (Cisplatin sensitization value of <0.02 μM)
17 | Nc1nn2cc(F)cnc2c1C(=O)Nc1cncc(F)c1N1CCC(C(=O)N2CCN(C3CC3)CC2)CC1 [I-G-13, 2-amino-N-(4-(4-(4-cyclopropylpiperazine-1-carbonyl)piperidin-1-yl)-5-fluoropyridin-3-yl)-6-fluoropyrazolo[1,5-a]pyrimidine-3-carboxamide] | +++ (Cisplatin sensitization value of <0.02 μM)
18 | Nc1nn2cc(F)cnc2c1C(=O)Nc1cncc(F)c1N1CCC(C(=O)N2CC3(COC3)C2)CC1 [I-G-14, N-(4-(4-(2-oxa-6-azaspiro[3.3]heptane-6-carbonyl)piperidin-1-yl)-5-fluoropyridin-3-yl)-2-amino-6-fluoropyrazolo[1,5-a]pyrimidine-3-carboxamide] | +++ (Cisplatin sensitization value of <0.02 μM)
19 | CN1CCN(C(=O)C2CCN(c3c(F)cncc3NC(=O)c3c(N)nn4cc(F)cnc34)CC2)CC1(C)C [I-G-15, 2-amino-6-fluoro-N-(5-fluoro-4-(4-(3,3,4-trimethylpiperazine-1-carbonyl)piperidin-1-yl)pyridin-3-yl)pyrazolo[1,5-a]pyrimidine-3-carboxamide] | +++ (Cisplatin sensitization value of <0.02 μM)
20 | CN(C)CCCN(C)C(=O)C1CCN(c2c(F)cncc2NC(=O)c2c(N)nn3cc(F)cnc23)CC1 [I-G-16, 2-amino-N-(4-(4-((3-(dimethylamino)propyl)(methyl)carbamoyl)piperidin-1-yl)-5-fluoropyridin-3-yl)-6-fluoropyrazolo[1,5-a]pyrimidine-3-carboxamide] | +++ (Cisplatin sensitization value of <0.02 μM)
21 | CNCCCN(C)C(=O)C1CCN(c2c(F)cncc2NC(=O)c2c(N)nn3cc(F)cnc23)CC1 [I-G-17] | + (Cisplatin sensitization value>0.2 μM but <5 μM)
22 | CN1CC2CN(C(=O)C3CCN(c4c(F)cncc4NC(=O)c4c(N)nn5cc(F)cnc45)CC3)CC2C1 (centres unmarked) [I-G-18, 2-amino-6-fluoro-N-(5-fluoro-4-(4-(5-methyloctahydropyrrolo[3,4-c]pyrrole-2-carbonyl)piperidin-1-yl)pyridin-3-yl)pyrazolo[1,5-a]pyrimidine-3-carboxamide] | +++ (Cisplatin sensitization value of <0.02 μM)
23 | CC(C)(C)NC(=O)C1CCN(c2c(F)cncc2NC(=O)c2c(N)nn3cc(F)cnc23)CC1 [I-G-19, 2-amino-N-(4-(4-(tert-butylcarbamoyl)piperidin-1-yl)-5-fluoropyridin-3-yl)-6-fluoropyrazolo[1,5-a]pyrimidine-3-carboxamide] | ++ (Cisplatin sensitization value>0.02 μM but <0.2 μM)
24 | CN1CCC(NC(=O)C2CCN(c3c(F)cncc3NC(=O)c3c(N)nn4cc(F)cnc34)CC2)CC1 [I-G-20, 2-amino-6-fluoro-N-(5-fluoro-4-(4-((1-methylpiperidin-4-yl)carbamoyl)piperidin-1-yl)pyridin-3-yl)pyrazolo[1,5-a]pyrimidine-3-carboxamide] | + (Cisplatin sensitization value>0.2 μM but <5 μM)
25 | COC1CN(C(=O)C2CCN(c3c(F)cncc3NC(=O)c3c(N)nn4cc(F)cnc34)CC2)C1 [I-G-21, 2-amino-6-fluoro-N-(5-fluoro-4-(4-(3-methoxyazetidine-1-carbonyl)piperidin-1-yl)pyridin-3-yl)pyrazolo[1,5-a]pyrimidine-3-carboxamide] | +++ (Cisplatin sensitization value of <0.02 μM)
26 | CN(C)C1CN(C(=O)C2CCN(c3c(F)cncc3NC(=O)c3c(N)nn4cc(F)cnc34)CC2)C1 [I-G-22, 2-amino-N-(4-(4-(3-(dimethylamino)azetidine-1-carbonyl)piperidin-1-yl)-5-fluoropyridin-3-yl)-6-fluoropyrazolo[1,5-a]pyrimidine-3-carboxamide] | +++ (Cisplatin sensitization value of <0.02 μM)
